From paper PMC10206591, “Identification of small molecules capable of enhancing viral membrane fusion” (Virology Journal, 2023)
Several values for one entry are separate records, joined by “and”; a condition that tells them apart may be missing. Equal values may be shown once.

What was measured:
[1] = system: SARS-CoV-2 S-mediated membrane fusion
[2] = system: SARS-CoV-2 S-mediated membrane fusion in the presence of TMPRSS2
Hek 293T cells [3] = assay: Cell viability, Cell-Titer Glo (ATP levels), Hek 293T; type: cell-based; conditions: 48 h, Fig. 6C
Protocol: (§1) The toxicity of the compounds was evaluated with Cell-Titer Glo (Promega) following the manufacturer’s indications. Briefly, cells were seeded (~ 1 × 10^4 cells/plate) in an opaque white 96-well plate and treated with the appropriate compound at the indicated concentration for 48 h. Next, 100 µl of CellTiter-Glo® reagent was added and let the luminescence signal stabilizes for 10 min. The luminescence was recorded on a VictorX multi-plate reader (Perking Elmer, Waltham, MA, USA).
(§2) Fig. 6 Toxicity of hit compounds. A, B The toxicity in Hek 293T and Vero E6 cells (A and B, respectively) was analyzed after incubating the compounds at the indicated concentration for 48 h. Toxicity was analyzed by measuring ATP levels using the Cell-Titer Glo assay (Promega) following the manufacturer’s indications. Dots represent the average of at least three independent experiments. C The CC10, CC50, and CC90 values were calculated with the data shown in panels A and B TEXT PRINTED IN THE PICTURE: (C) Latanoprost: Hek293T CC10 (μM): 16.2; Hek293T CC50 (μM): 63.9; Hek293T CC90 (μM): 270; Vero E6 CC10 (μM): 76.9; Vero E6 CC50 (μM): 124; Vero E6 CC90 (μM): 171 | (C) Diperodon: Hek293T CC10 (μM): 14.2; Hek293T CC50 (μM): 41; Hek293T CC90 (μM): 98.3; Vero E6 CC10 (μM): 24; Vero E6 CC50 (μM): 88; Vero E6 CC90 (μM): 153 | (C) Ethynylestradiol: Hek293T CC10 (μM): 11.8; Hek293T CC50 (μM): 49.9; Hek293T CC90 (μM): 169.9; Vero E6 CC10 (μM): 13.6; Vero E6 CC50 (μM): 96.6; Vero E6 CC90 (μM): 224 | (C) Simvastatin: Hek293T CC10 (μM): 8.0; Hek293T CC50 (μM): 34.2; Hek293T CC90 (μM): 125.8; Vero E6 CC10 (μM): 3.11; Vero E6 CC50 (μM): 6.02; Vero E6 CC90 (μM): 61.2 | (C) Rabeprazol: Hek293T CC10 (μM): 14.3; Hek293T CC50 (μM): 38.1; Hek293T CC90 (μM): 83.6; Vero E6 CC10 (μM): 51.6; Vero E6 CC50 (μM): 122.8; Vero E6 CC90 (μM): 194 | (C) Ethaverine: Hek293T CC10 (μM): 9.7; Hek293T CC50 (μM): 43.8; Hek293T CC90 (μM): 120.7; Vero E6 CC10 (μM): 45; Vero E6 CC50 (μM): 119.8; Vero E6 CC90 (μM): 194.7

[4] = as above; type: cell-based; conditions: human, 48 h; for CC90: read-out: Hek293T CC90
Protocol: as §1, §2

[5] = Cell viability, Cell-Titer Glo (ATP levels), Vero E6; type: cell-based; conditions: African green monkey; 48 h, Fig. 6C
Protocol: as §1, §2

Vero E6 cells = assay: as above; type: cell-based; conditions: 48 h, Fig. 6C
Protocol: as §1, §2

SARS-CoV-2 = type: cell-based
Hek 293T cells [6] = assay: Cell viability, Cell-Titer Glo (ATP levels), Hek 293T; type: cell-based; conditions: Hek 293T transfected with TMPRSS2 or eYFP, Fig. S2
[7] = system: Nipah virus membrane fusion; type: cell-based; conditions: Hek 293T, NiV F and G, 48 h
IAV/WSN/33 = type: cell-based, Influenza A virus
[8] = Table 1, Hek 293T, read-out: CC50
[9] = Fig. 6C, read-out: Hek293T CC50

## CC(C)OC(=O)CCC/C=C\C[C@@H]1[C@@H](CC[C@@H](O)CCc2ccccc2)[C@H](O)C[C@@H]1O [Latanoprost]
[1]
  Activity index (Fusion % at CC50/CC50), NO TMPRSS2: 1,11
  Fusion % at CC50, NO TMPRSS2: 70,98%
  increase in viral-induced membrane fusion (in words): stronger inducers
[2]
  Activity index (Fusion % at CC50/CC50), TMPRSS2: 2,39
  Fusion % at CC50, TMPRSS2: 152,75%
Hek 293T cells [3]
  Hek293T CC10: 16.2 µM
[4]; [8]
  CC50: 63.9 µM
[4]; [9]
  CC50: 63.9 µM
[4]; Fig. 6C
  CC90: 270 µM
[5]
  CC50: 124 µM
  CC90: 171 µM
Vero E6 cells
  Vero E6 CC10: 76.9 µM

## C#C[C@]1(O)CC[C@H]2[C@@H]3CCc4cc(O)ccc4[C@H]3CC[C@@]21C [Ethynylestradiol]
SARS-CoV-2
  SARS-CoV-2 titer, Average: 2.6x10^6 pfu/mL and 3.6x10^6 pfu/mL and 5.0x10^6 pfu/mL
  effect on SARS-CoV-2 viral titers (in words): increased viral titers
Hek 293T cells [6]
  toxicity in the presence of TMPRSS2 (in words): compound toxicity was not affected by the presence of the cellular protease
[1]
  Activity index (Fusion % at CC50/CC50), NO TMPRSS2: 3,25
  Fusion % at CC50, NO TMPRSS2: 162,00%
  increase in viral-induced membrane fusion (in words): stronger inducers
[2]
  Activity index (Fusion % at CC50/CC50), TMPRSS2: 6,27
  Fusion % at CC50, TMPRSS2: 312,60%
Hek 293T cells [3]
  Hek293T CC10: 11.8 µM
[4]; [8]
  CC50: 49.9 µM
[4]; [9]
  CC50: 49.9 µM
[4]; Fig. 6C
  CC90: 170 µM
[7]
  effect on NiV-induced membrane fusion (in words): enhance viral-mediated membrane fusion in a mild dose-dependent manner
[5]
  CC50: 96.6 µM
  CC90: 224 µM
Vero E6 cells
  Vero E6 CC10: 13.6 µM
IAV/WSN/33
  effect on IAV titers (in words): increases IAV titers by approximately one log

## O=C(O)c1cn(-c2ccc(F)cc2)c2cc(N3CCNCC3)c(F)cc2c1=O [Sarafloxacin]
[1]
  Z-score: 2,16

## N=C(N)c1ccc(OCCCCCOc2ccc(C(=N)N)cc2)cc1 [Pentamidine isethionate]
[1]
  Z-score: 6,07

## CC(C)Oc1ccc2c(=O)c(-c3ccccc3)coc2c1 [Ipriflavone]
[1]
  Z-score: 2,37

## O=C(CCCCCCC(=O)Nc1ccccc1)NO [Vorinostat]
[1]
  Z-score: 4,62

## CCCSc1ccc2nc(NC(=O)OC)[nH]c2c1 [Albendazole]
[1]
  Z-score: 1,67

## O=C(N[C@H](CO)[C@H](O)c1ccc([N+](=O)[O-])cc1)C(Cl)Cl [Chloramphenicol]
[1]
  Z-score: 2,64

## CN(C)/N=N/c1[nH]cnc1C(N)=O [Dacarbazine]
[1]
  Z-score: 2,34

## COc1cc2ncnc(Nc3ccc(F)c(Cl)c3)c2cc1OCCCN1CCOCC1 [Gefitinib]
[1]
  Z-score: 3,33

## Cl.NC1CCN(c2nc3c(cc2F)c(=O)c(C(=O)O)cn3-c2ccc(F)cc2F)C1 (stereo not drawn) [Tosufloxacin hydrochloride]
[1]
  Z-score: 1,77

## COC(=O)Nc1nc2cc(C(=O)c3ccc(F)cc3)ccc2[nH]1 [Flubendazol]
[1]
  Z-score: 3,95

## CN1CCN(CCCN2c3ccccc3Sc3ccc(S(=O)(=O)N(C)C)cc32)CC1.CS(=O)(=O)O.CS(=O)(=O)O [Thioproperazine dimesylate]
[1]
  Z-score: 2,39

## CC(=O)O[C@@]12CO[C@@H]1C[C@H](O)[C@@]1(C)C(=O)[C@H](O)C3=C(C)[C@@H](OC(=O)[C@H](O)[C@@H](NC(=O)OC(C)(C)C)c4ccccc4)C[C@@](O)([C@@H](OC(=O)c4ccccc4)[C@H]21)C3(C)C [Docetaxel]
[1]
  Z-score: 1,72

## COc1cc2c(c(OC)c1OC)-c1ccc(OC)c(=O)cc1[C@@H](NC(C)=O)CC2 [Colchicine]
[1]
  Z-score: 1,93
